According to US5656662A, “Synthesis of optically pure 4-alkenyl- or 4-alkanyl-2-hydroxytetronic acids” (The Ohio State University Research Foundation, priority 1995, dated 1997):

Legend:
Format in all cases: cell-based
IL-1β = IL-1β secretion from purified human monocytes; design: key to EFFECT on IL1β: NE: No effect; INHIB: Inhibition; STIM: Stimulation; IC40: 40% Inhibitory Concentration; EC50: 50% Effective Concentration; TC: Tolerated Concentration; IA: Interferes with Assay
Description: This assay determines the effect of test compounds on the secretion of IL-1β from purified human monocytes.
(§1) Compounds are tested for their ability to downregulate the production of IL-1β in activated monocytes, or upregulate secretion of IL-1β in unstimulated monocytes. Test compounds are incubated for sixteen hours with purified human monocytes at four dilutions over a range of three log10 concentrations. Where appropriate, lipopolysaccharide (LPS) is used to stimulate the monocytes.
The level of IL-1β in the resultant supernatants is quantitated in a solid phase Enzyme-linked Immunoassay (EIA) performed in a 96 well format. IL-1β present in the samples is captured by a specific monoclonal antibody immobilized on the well, and probed with an anti-IL-1β polyclonal antibody conjugated to horseradish peroxidase, followed by an appropriate substrate. The levels of IL-1β are determined by interpolation of the resultant color change in the substrate from a standard curve. All supernatants are tested in duplicate with controls and standards.
as §1, with “This assay determines the effect of test compounds on the secretion of IL-1β from purified human monocytes. Compounds” for “Compounds”

tissue factor (TF) = assay: Membrane bound tissue factor production from purified human monocytes; design: key to EFFECT on TISSUE FACTOR: NE: No effect; INHIB: Inhibition; STIM: Stimulation; IC40: 40% Inhibitory Concentration; EC50: 50% Effective Concentration; TC: Tolerated Concentration; IA: Interferes with Assay
Description: as §1, with “This assay determines the effect of test compounds on the production of membrane bound tissue factor (TF) from purified human monocytes. Compounds” for “Compounds”, “TF” for “IL-1β”, “production” for “secretion”
After the above period of incubation, medium is aspirated from the monocytes, and the cells are solubilized in Triton-X 100. The level of TF in the soluble fraction is quantitated in a solid phase Enzyme-linked Immunoassay (EIA) performed in a 96 well format. TF present in the samples is captured by a specific monoclonal antibody immobilized on the well, and detected using a biotinylated antibody fragment specific for bound TF, followed by streptavidin conjugated to horseradish peroxidase and an appropriate substrate. The levels of TF are determined by interpolation of the resultant color change in the substrate from a standard curve. All supernatants are tested in duplicate with controls and standards.

PGE2 = PGE2 production by purified human monocytes; design: key to EFFECT on PGE2: NE: No effect; INHIB: Inhibition; STIM: Stimulation; IC40: 40% Inhibitory Concentration; EC50: 50% Effective Concentration; TC: Tolerated Concentration; IA: Interferes with Assay
Description: (§2) This procedure measures the ability of test compounds to modulate the amount of PGE2 produced by purified human monocytes. Compounds are tested for their ability to downregulate the secretion of PGE2 from activated monocytes, or upregulate secretion of PGE2 from unstimulated monocytes. Test compounds are incubated for ninety minutes with purified human monocytes at four dilutions over a range of three log10 concentrations. Where appropriate, zymosan is used to stimulate the monocytes.
The level of PGE2 in the resultant supernatants is quantitated by immunoassay performed in a 96 well format. PGE2 levels modulated by unknown compounds are determined by interpolation from a standard curve. All compounds are tested in duplicate with controls and standards.

TxA2 = TxA2 production by purified human monocytes; design: key to EFFECT on TxA2: NE: No effect; INHIB: Inhibition; STIM: Stimulation; IC40: 40% Inhibitory Concentration; EC50: 50% Effective Concentration; TC: Tolerated Concentration; IA: Interferes with Assay
Description: as §2, with “amount of TxA2 (the major cyclo-oxygenase product) produced by” for “amount of PGE2 produced by”, “secretion of TxA2 from activated” for “secretion of PGE2 from activated”, “secretion of TxA2 from unstimulated” for “secretion of PGE2 from unstimulated”
The level of TxA2 in the resultant supernatants is quantitated by immunoassay performed in a 96 well format. TxA2 levels modulated by unknown compounds are determined by interpolation from a standard curve. All compounds are tested in duplicate with controls and standards.

PAF = PAF production by purified human monocytes; design: key: NE: No effect; INHIB: Inhibition; STIM: Stimulation; IC40: 40% Inhibitory Concentration; EC50: 50% Effective Concentration; TC: Tolerated Concentration; IA: Interferes with Assay
Description: as §2, with “This assay” for “This procedure”, “of PAF” for “of PGE2”, “monocytes ar” for “monocytes at”
The level of PAF in the resultant supernatants is quantitated by immunoassay performed in a 96 well format. PAF levels modulated by unknown compounds are determined by interpolation from a standard curve. All compounds are tested in duplicate with controls and standards.
as §2, with “This assay” for “This procedure”, “of PAF” for “of PGE2”, “by purified,” for “by purified”, “monocytes ar” for “monocytes at”

MTS = settings: human, monocytes; read-out: TC (Tolerated Concentration), MTS
[1] = Homo sapiens, Monocyte, STIMULATED, INHIB

In the case of `CCCCCCCCCCCCCC/C=C\CC[C@@H]1OC(=O)C(O)=C1O` [(S)-3,4-Dihydroxy-5-[(Z)-3-octadecenyl]-2(5H)-furanone], the IC40 (IL-1β; Homo sapiens, Monocyte, 16 h, STIMULATED, INHIB, 40% Inhibitory Concentration, read-out: IC40, IL1β) is reported as 50 µM, the “EFFECT on IL1β” value (IL-1β; STIMULATED) is reported as “INHIB” and the “EFFECT on IL1β” value (IL-1β; UNSTIMULATED) is reported as “NE”. For the same compound, the EC50 (tissue factor (TF); Homo sapiens, Monocyte, STIMULATED, STIM) was 35 µM, the “EFFECT on TISSUE FACTOR” value (tissue factor (TF); STIMULATED) was “STIM” and the “EFFECT on TISSUE FACTOR” value (tissue factor (TF); UNSTIMULATED) was “NE”. The EC50 (PGE2; [1]) was 2 µM, the “EFFECT on PGE2” value (PGE2; STIMULATED) was “INHIB” and the “EFFECT on PGE2” value (PGE2; UNSTIMULATED) was “NE”. The EC50 (TxA2; [1]) was 5 µM, the “EFFECT on TxA2” value (TxA2; STIMULATED) was “INHIB” and the “EFFECT on TxA2” value (TxA2; UNSTIMULATED) was “NE”. For the same compound, the “EFFECT on PAF” value (PAF; STIMULATED) was “NE”, the “EFFECT on PAF” value (PAF; UNSTIMULATED) was “NE” and the MNTC (MTS) was 50 µM.
